Measured values reported in patent US20130337564A1, “Treatment of Pluripotent Cells” (Janssen Biotech, Inc., priority 2012, published 2013).

Legend:
[1] = test system: human embryonic stem cell line H1; assay: Dose titration secondary assay: cell number, H1; assay type: cell-based; settings: Homo sapiens, Embryonic stem cell, positive control (Wnt3a/Activin A) normalized to 1.000; for activity at 0.156 µM: Conc 0.156 μM; for activity at 0.313 µM: Conc 0.313 μM; for activity at 0.625 µM: Conc 0.625 μM; for activity at 1.25 µM: Conc 1.25 μM; for activity at 2.5 µM: Conc 2.5 μM; for activity at 5 µM: Conc 5 μM; for activity at 10 µM: Conc 10 μM
Experimental: It was important to confirm the activity of hits identified from primary screening and further analyze the range of activity by dose titration. New samples of a selective subset of primary screening hits were obtained as dry powders, solubilized to make fresh stock reagents, and diluted into secondary confirmation assays to evaluate effects on human embryonic stem cells.
Culture of two human embryonic stem cells (H1 and H9) was conducted as described in Example 1. Colonies of cells were maintained in an undifferentiated, pluripotent state on Matrigel™ ([…]) coated polystyrene plastic, using a 1:30 dilution of Matrigel™ in DMEM:F12 to coat the surface. Cells were split by enzymatic passage every four days on average. Passage was performed by exposing cell monolayers to a solution of collagenase (1 mg/ml; Sigma-Aldrich) for 10 to 60 minutes at 37° C. followed by gentle scraping with a pipette tip to recover cell clusters. Clusters were allowed to sediment by gravity, then washed to remove residual collagenase. Cell clusters were split at a 1:3 ratio for maintenance culture or a 1:1 ratio for subsequent assay. The human embryonic stem cell lines were maintained at less than passage 50 and routinely evaluated for normal karyotypic phenotype and absence of mycoplasma contamination.
Cell clusters of the H1 or H9 human embryonic stem cell lines used in the assay were evenly resuspended in culture medium and plated onto Matrigel™-coated 96-well Packard VIEWPLATES (PerkinElmer) in volumes of 100 μl/well. MEF conditioned medium supplemented with 8 ng/ml bFGF was used for initial plating and expansion. Daily feeding was conducted by aspirating spent culture medium from each well and replacing with an equal volume of fresh medium. Cultures were allowed to expand one to three days after plating prior to initiating assay. Plates were maintained at 37° C., 5% CO2 in a humidified box for the duration of assay.
A subset of hits resulting from primary screening was used for follow-up study and subsequent secondary assays. Twenty compounds available as dry powders were solubilized as 10 mM stocks in DMSO and stored dessicated at […] until use Immediately prior to assay, compound stocks were diluted 1:1000 to make 10 μM test compound in DMEM:F12 base medium (Invitrogen) supplemented with 0.5% FCS (HyClone) and 100 ng/ml Activin A (R&D Biosystems). This was further diluted two-fold in series to make a seven point dilution curve for each compound, also in DMEM:F12 base medium with 0.5% FCS and 100 ng/ml Activin A.
Assay was initiated by aspirating culture medium from cell monolayers in each well followed by three washes in PBS to remove residual growth factors and serum. Test volumes of 100 μl per well were added back containing medium with 0.5% FCS and different concentrations of inhibitor compounds with 100 ng/ml Activin A, without Wnt3a. Positive control wells contained the same base medium with 0.5% FCS and with 20 ng/ml Wnt3a (R&D Biosystems) in the absence of test compound. Negative control wells contained the same base medium with 0.5% FCS, in the absence of Activin A, Wnt3a, or test compound. Assay wells were aspirated and fed again with identical concentrations of test compound or control solutions on day 2 of assay. On days 3 and 4, all assay wells were aspirated and fed with DMEM:F12 supplemented with 2% FCS and 100 ng/ml Activin A in the absence of both test compound or Wnt3a. Parallel negative control wells were maintained on days 3 and 4 in DMEM:F12 base medium with 2% FCS.
At the end of culture, cells in 96-well plates were washed twice with PBS then fixed with 4% paraformaldehyde at room temperature for 20 minutes, washed three times more with PBS, and then permeabilized with 0.5% Triton X-100 for 20 minutes at room temperature. After fixing and permeabilizing, cells were washed again three times with PBS and then blocked with 4% chicken serum (Invitrogen) in PBS for 30 minutes at room temperature. […]

[2] = MTS viability (toxicity) assay of cells expressing pluripotency markers; assay type: cell-based, human; settings: human, MTS on day 4, relative to Activin A + Wnt3a positive control, read-out: % Control (percentage viability of control); for viability at 4 days, 2.5 μM: cmpd conc 2.5 μM; for viability at 4 days, 5 μM: cmpd conc 5 μM; for viability at 4 days, 10 μM: cmpd conc 10 μM
Summary of the method: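 A GSK-3B inhibitor library was screened for toxicity to pluripotency-marker-expressing cells. Compound was given in DMEM:F12 with 0.5% FCS and 100 ng/ml Activin A for two days, then replaced by medium with 2% FCS and Activin A. On day 4, MTS absorbance at 490 nm gave viability as percent of Activin A plus Wnt3a control wells.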

O=C1NC(=O)C(c2cn(CCCO)c3ncccc23)=C1c1cnccn1 [Compound 47, 3-[1-(3-Hydroxypropyl)-1H-pyrrolo[2,3-b]pyridin-3-yl]-4-pyrazin-2-yl-1H-pyrrole-2,5-dione]
activity at 0.156 µM [1]: 71.2%
activity at 0.313 µM [1]: 74.2%
activity at 0.625 µM [1]: 83.2%
activity at 1.25 µM [1]: 101%
activity at 2.5 µM [1]: 93.2%
activity at 5 µM [1]: 110%
activity at 10 µM [1]: 105%

O=C1NC(=O)C(c2nn(CCCO)c3ccccc23)=C1c1cn(-c2cccnc2)c2ccc(Cl)cc12 [Compound 52, 3-(5-Chloro-1-pyridin-3-yl-1H-indol-3-yl)-4-[1-(3-hydroxypropyl)-1H-indazol-3-yl]-1H-pyrrole-2,5-dione]
activity at 0.156 µM [1]: 82.6%
activity at 0.313 µM [1]: 103%
activity at 0.625 µM [1]: 130%
activity at 1.25 µM [1]: 145%
activity at 2.5 µM [1]: 110%
activity at 5 µM [1]: 2.4%
activity at 10 µM [1]: 0%
viability at 4 days, 2.5 μM [2]: 92%
viability at 4 days, 5 μM [2]: 40.1%
viability at 4 days, 10 μM [2]: 2.3%

CN(C)CCCn1c2c(c3ccccc31)C1=C(C(=O)NC1=O)N(c1cccc(Cl)c1)C2 [Compound 101, 4-(3-Chlorophenyl)-6-[3-(dimethylamino)propyl]-5,6-dihydropyrrolo[3′,4′:5,6]pyrido[3,4-b]indole-1,3(2H,4H)-dione]
activity at 0.156 µM [1]: 81.2%
activity at 0.313 µM [1]: 61.7%
activity at 0.625 µM [1]: 69.9%
activity at 1.25 µM [1]: 116%
activity at 2.5 µM [1]: 100%
activity at 5 µM [1]: 76.8%
activity at 10 µM [1]: 49.6%
viability at 4 days, 2.5 μM [2]: 100%
viability at 4 days, 5 μM [2]: 95.9%
viability at 4 days, 10 μM [2]: 1.3%

O=C1NC(=O)C(c2cn(CCOCCOCCO)c3ccccc23)=C1c1cn(CCO)c2ccccc12 [Compound 110, 3-[1-(2-Hydroxyethyl)-1H-indol-3-yl]-4-{1-[2-({2-[(2-hydroxyethyl)oxy]ethyl}oxy)ethyl]-1H-indol-3-yl}-1H-pyrrole-2,5-dione]
activity at 0.156 µM [1]: 97.4%
activity at 0.313 µM [1]: 116%
activity at 0.625 µM [1]: 119%
activity at 1.25 µM [1]: 111%
activity at 2.5 µM [1]: 117%
activity at 5 µM [1]: 53%
activity at 10 µM [1]: 12.9%
viability at 4 days, 2.5 μM [2]: 104%
viability at 4 days, 5 μM [2]: 98.5%
viability at 4 days, 10 μM [2]: 81.6%

O=C1NC(=O)C(c2cn(CCOCCOCCNC3CCCc4ccccc43)c3ccccc23)=C1c1cn(CCNC2CCCc3ccccc32)c2ccccc12 (centres unmarked) [Compound 144, 3-{1-[2-(1,2,3,4-Tetrahydronaphthalen-1-ylamino)ethyl]-1H-indol-3-yl}-4-(1-{2-[(2-{[2-(1,2,3,4-tetrahydronaphthalen-1-ylamino)ethyl]oxy}ethyl)oxy]ethyl}-1H-indol-3-yl)-1H-pyrrole-2,5-dione]
activity at 0.156 µM [1]: 59.4%
activity at 0.313 µM [1]: 73.4%
activity at 0.625 µM [1]: 89.5%
activity at 1.25 µM [1]: 55.2%
activity at 2.5 µM [1]: 19.2%
activity at 5 µM [1]: 0%
activity at 10 µM [1]: 0%
viability at 4 days, 2.5 μM [2]: 23.9%
viability at 4 days, 5 μM [2]: 2.5%
viability at 4 days, 10 μM [2]: 2.4%
